In ChEMBL document CHEMBL1201862, “PubChem BioAssay data set” (2004) one finds IC50 data, which are given here for two compounds.

The structures appear in SMILES notation. Activity calls are given as the source filed them. No stated cut-off is given here; in the data, actives have a measured IC50 and inactives only a lower limit.

In this assay the target is Envelope glycoprotein gp160 (Human immunodeficiency virus 1, UniProt Q6QLK5). The assay is described as follows: inhibitors of HIV fusion peptide binding, primary screen, biochemical, uHTS, fluorescence dequenching (AID 1986).
Sequence of Envelope glycoprotein gp160 (Q6QLK5 whole entry, the tested form may be a part): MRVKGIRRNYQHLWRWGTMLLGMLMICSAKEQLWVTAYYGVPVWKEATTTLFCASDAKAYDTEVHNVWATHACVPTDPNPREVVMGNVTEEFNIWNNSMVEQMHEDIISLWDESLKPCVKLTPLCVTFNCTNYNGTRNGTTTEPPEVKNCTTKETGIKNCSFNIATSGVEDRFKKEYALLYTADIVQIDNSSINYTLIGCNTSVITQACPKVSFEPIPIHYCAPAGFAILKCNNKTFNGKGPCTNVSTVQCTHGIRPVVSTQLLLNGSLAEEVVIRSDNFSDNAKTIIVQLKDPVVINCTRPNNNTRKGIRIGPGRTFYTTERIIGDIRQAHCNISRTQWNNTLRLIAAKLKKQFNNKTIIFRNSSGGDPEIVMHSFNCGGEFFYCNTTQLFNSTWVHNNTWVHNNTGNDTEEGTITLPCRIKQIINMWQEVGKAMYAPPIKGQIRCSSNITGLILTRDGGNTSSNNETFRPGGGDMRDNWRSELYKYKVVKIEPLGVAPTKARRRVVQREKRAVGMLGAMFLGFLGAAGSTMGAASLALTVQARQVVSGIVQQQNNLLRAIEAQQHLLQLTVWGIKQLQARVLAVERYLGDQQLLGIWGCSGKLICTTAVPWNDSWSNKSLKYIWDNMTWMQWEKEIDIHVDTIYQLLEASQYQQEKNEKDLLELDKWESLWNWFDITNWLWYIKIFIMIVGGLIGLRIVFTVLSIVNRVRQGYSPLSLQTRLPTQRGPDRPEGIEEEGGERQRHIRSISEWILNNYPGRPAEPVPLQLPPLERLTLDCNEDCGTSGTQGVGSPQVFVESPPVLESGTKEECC

Usually IC50 stands for the concentration needed to halve the response being measured. In the case of `Cc1ccc(NC(=O)COc2cccc(/C=C3\SC(=S)N(CCC(=O)O)C3=O)c2)cc1Cl`, the 50% inhibitory concentration (IC50) is 12.2 µM (active).
The figure for `NC(=O)Cn1cc(C=C2C(=O)NC(=O)NC2=O)c2ccccc21` is 69.2 µM (active).
